Laboratory results taken from patent publication EP0555116B1, “Compositions based on antiseptics and their applications” (HUTCHINSON, priority 1992, dated 1993).

Test system: virus HIV1
Assay: Infectivity of HIV1 for normal human T lymphocytes after 10 min treatment of the virus; reverse transcriptase activity (ATI) in culture supernatants
Format: cell-based
Details: for action virucide: produit utilisé seul, 0,002
Procedure: Pour l'étude du pouvoir infectieux résiduel après traitement des préparations virales, le milieu de culture des lymphocytes T humains normaux (milieu complet) correspond au milieu ci-dessus auquel sont ajoutés 10 % d'interleukine II, du polybrène (2 µg/ml) et du sérum anti-interféron humain 1/2500 (M.A. REY et al., Biochem. Biophys. Res. Com., 1984, 121, 126-133).
L'infectivité est étudiée sur des lymphocytes T obtenus à partir du sang périphérique d'un donneur humain sain, et séparés sur un gradient de Ficoll.
Les lymphocytes sont stimulés pendant 3 jours par de la phytohémagglutinine P (PHA-P), diluée au 1/500 et cultivés dans du milieu complet. Les cellules T blastiques sont infectées par le virus, traité ou non, pour mettre en évidence le pouvoir infectieux résiduel.
Le virus est obtenu à partir d'un surnageant de culture de la lignée CEM infectée par HIV1. Cette lignée T lymphoblastoïde infectée par HIV1 est utilisée pour la production virale.
Le titre des surnageants utilisés est évalué après dosage de l'activité transcriptase inverse (ATI) du virus.
Dans les essais qui suivent, on a utilisé un surnageant dont l'ATI est de 1,8.10^6 cpm/ml. 2. Méthodes :
• Préparation de la solution virale : plusieurs tubes contenant 1 ml de surnageant viral, ATI 1,8.10^6 cmp/ml sont concentrés par ultracentrifugation. Les culots de virus ainsi obtenus sont repris soit par chacune des dilutions de produit réalisées dans de l'eau bidistillée stérile, soit par de l'eau (virus témoin non traité). • Traitement des préparations virales : les préparations virales concentrées sont toutes traitées selon le protocole indiqué ci-dessous : • . échantillons viraux traités : les culots de virus concentrés par ultracentrifugation sont resuspendus dans 100 µl de chacune des concentrations en produits étudiés et incubés pendant 10 minutes. • . échantillon viral témoin : témoin virus non traité : le produit est remplacé par 100 µl d'eau bidistillée stérile. A la suite de ce temps d'incubation de 10 minutes, le virus présent dans chaque échantillon est rincé puis reconcentré par addition de 12 ml de milieu RPMI 1640 et ultracentrifugation. Les culots de virus sont alors repris dans 1 ml de milieu complet et utilisés pour l'infection de lymphocytes T humains normaux. • Mesure de l'infectivité des échantillons : 4.10^6 lymphocytes T humains normaux sont infectés avec chacune des préparations virales traitées ou témoins indiquées ci-dessus. L'infection des cellules T est réalisée selon une méthode précédemment décrite (F. BARRE-SINOUSSI et al., Science, 1983, 220, 868-871) : en résumé 4.10^6 cellules en suspension dans 1 ml de milieu complet sont incubées avec 1 ml de chacune des préparations virales traitées ou témoins pendant 1 heure à 37°C. Après 2 lavages par plusieurs ml de milieu de culture, les suspensions cellulaires sont ajustées à la concentration de 1.10^6 cellules par ml. Le jour de l'infection est considéré comme jour 0. • . Cellules témoin : 4.10^6 lymphocytes T sont cultivés et passés tous les 3 ou 4 jours dans les mêmes conditions que tous les autres échantillons. Ce témoin correspond au témoin négatif de la production virale au cours de la manipulation. La production virale au cours du temps est déterminée en mesurant l'activité transcriptase inverse présente dans les surnageants de culture selon le protocole décrit ci-dessous. • . Mesure de l'activité transcriptase inverse des préparations virales témoins et des échantillons viraux traités par les produits : ce dosage permet d'évaluer la présence de virus résiduel non inactivé dans l'échantillon de départ. Il est réalisé à partir de 1 ml de surnageant de culture, prélevé tous les 3 ou 4 jours et ultracentrifugé.
Les activités enzymatiques sont mesurées dans 50 µl d'un mélange réactionnel contenant 50 mM Tris pH 7,8, 20 mM MgCl2, 20 mM KCl, 2 mM dithiotréitol, 0,25 OD/ml oligo dT, 0,25 OD/ml poly rA, 0,1 % Triton X 100 et 2,5 µCi 3H DTTP. […]

## CCCCCCCCCC[N+](C)(C)CCCCCCCCCC [Bardac®, chlorure de didécyldiméthylammonium]
Bardac® 0,01 %, J3
  ATI dans les surnageants: 334 cpm/ml
Bardac® 0,01 %, J6
  ATI dans les surnageants: 222 cpm/ml
Bardac® 0,01 %, J10
  ATI dans les surnageants: 1768 cpm/ml
Bardac® 0,01 %, J13
  ATI dans les surnageants: 1592 cpm/ml
Bardac® 0,01 %, J17
  ATI dans les surnageants: 190 cpm/ml
Bardac® 0,01 %, J20
  ATI dans les surnageants: 390 cpm/ml
Bardac® 0,01 %, J23
  ATI dans les surnageants: 1328 cpm/ml
Bardac® 0,01 %, J27
  ATI dans les surnageants: 780 cpm/ml
Bardac® 0,01 %, J30
  ATI dans les surnageants: 1000 cpm/ml
Bardac® 0,0004 %, J3
  ATI dans les surnageants: 702 cpm/ml
Bardac® 0,0004 %, J6
  ATI dans les surnageants: 18136 cpm/ml
Bardac® 0,0004 %, J10
  ATI dans les surnageants: 117326 cpm/ml
Bardac® 0,0004 %, J13
  ATI dans les surnageants: 74214 cpm/ml
Bardac® 0,0004 %, J17
  ATI dans les surnageants: 50674 cpm/ml
Bardac® 0,0004 %, J20
  ATI dans les surnageants: 22478 cpm/ml
Bardac® 0,0004 %, J23
  ATI dans les surnageants: 13806 cpm/ml
Bardac® 0,0004 %, J27
  ATI dans les surnageants: 7800 cpm/ml
Bardac® 0,0004 %, J30
  ATI dans les surnageants: 4426 cpm/ml
Bardac® 0,002 %, J3
  ATI dans les surnageants: 464 cpm/ml
Bardac® 0,002 %, J6
  ATI dans les surnageants: 2472 cpm/ml
Bardac® 0,002 %, J10
  ATI dans les surnageants: 16066 cpm/ml
Bardac® 0,002 %, J13
  ATI dans les surnageants: 24902 cpm/ml
Bardac® 0,002 %, J17
  ATI dans les surnageants: 77754 cpm/ml
Bardac® 0,002 %, J20
  ATI dans les surnageants: 75554 cpm/ml
Bardac® 0,002 %, J23
  ATI dans les surnageants: 101394 cpm/ml
Bardac® 0,002 %, J27
  ATI dans les surnageants: 80560 cpm/ml
Bardac® 0,002 %, J30
  ATI dans les surnageants: 64692 cpm/ml
Bardac® 0,004 %, J3
  ATI dans les surnageants: 346 cpm/ml
Bardac® 0,004 %, J6
  ATI dans les surnageants: 298 cpm/ml
Bardac® 0,004 %, J10
  ATI dans les surnageants: 160 cpm/ml
Bardac® 0,004 %, J13
  ATI dans les surnageants: 170 cpm/ml
Bardac® 0,004 %, J17
  ATI dans les surnageants: 350 cpm/ml
Bardac® 0,004 %, J20
  ATI dans les surnageants: 218 cpm/ml
Bardac® 0,004 %, J23
  ATI dans les surnageants: 444 cpm/ml
Bardac® 0,004 %, J27
  ATI dans les surnageants: 244 cpm/ml
Bardac® 0,004 %, J30
  ATI dans les surnageants: 264 cpm/ml
Bardac® 0,006 %, J3
  ATI dans les surnageants: 320 cpm/ml
Bardac® 0,006 %, J6
  ATI dans les surnageants: 326 cpm/ml
Bardac® 0,006 %, J10
  ATI dans les surnageants: 204 cpm/ml
Bardac® 0,006 %, J13
  ATI dans les surnageants: 248 cpm/ml
Bardac® 0,006 %, J17
  ATI dans les surnageants: 364 cpm/ml
Bardac® 0,006 %, J20
  ATI dans les surnageants: 180 cpm/ml
Bardac® 0,006 %, J23
  ATI dans les surnageants: 328 cpm/ml
Bardac® 0,006 %, J27
  ATI dans les surnageants: 588 cpm/ml
Bardac® 0,006 %, J30
  ATI dans les surnageants: 196 cpm/ml
  action virucide: ne sont pas virucides

## [H]/N=C(\N/C(=N/[H])NCCCCCCNC(=N)NC(=N)Nc1ccc(Cl)cc1)Nc1ccc(Cl)cc1 [Chlorhexidine, digluconate de chlorhexidine, reference compound]
Chlorhexidine 0,01 %, J3
  ATI dans les surnageants: 262 cpm/ml
Chlorhexidine 0,01 %, J6
  ATI dans les surnageants: 274 cpm/ml
Chlorhexidine 0,01 %, J10
  ATI dans les surnageants: 200 cpm/ml
Chlorhexidine 0,01 %, J13
  ATI dans les surnageants: 250 cpm/ml
Chlorhexidine 0,01 %, J17
  ATI dans les surnageants: 230 cpm/ml
Chlorhexidine 0,01 %, J20
  ATI dans les surnageants: 272 cpm/ml
Chlorhexidine 0,01 %, J23
  ATI dans les surnageants: 456 cpm/ml
Chlorhexidine 0,01 %, J27
  ATI dans les surnageants: 420 cpm/ml
Chlorhexidine 0,01 %, J30
  ATI dans les surnageants: 276 cpm/ml
Chlorhexidine 0,002 %, J3
  ATI dans les surnageants: 252 cpm/ml
Chlorhexidine 0,002 %, J6
  ATI dans les surnageants: 352 cpm/ml
Chlorhexidine 0,002 %, J10
  ATI dans les surnageants: 1304 cpm/ml
Chlorhexidine 0,002 %, J13
  ATI dans les surnageants: 1752 cpm/ml
Chlorhexidine 0,002 %, J17
  ATI dans les surnageants: 4288 cpm/ml
Chlorhexidine 0,002 %, J20
  ATI dans les surnageants: 6138 cpm/ml
Chlorhexidine 0,002 %, J23
  ATI dans les surnageants: 4614 cpm/ml
Chlorhexidine 0,002 %, J27
  ATI dans les surnageants: 1616 cpm/ml
Chlorhexidine 0,002 %, J30
  ATI dans les surnageants: 4528 cpm/ml
Chlorhexidine 0,005 %, J3
  ATI dans les surnageants: 360 cpm/ml
Chlorhexidine 0,005 %, J6
  ATI dans les surnageants: 374 cpm/ml
Chlorhexidine 0,005 %, J10
  ATI dans les surnageants: 580 cpm/ml
Chlorhexidine 0,005 %, J13
  ATI dans les surnageants: 742 cpm/ml
Chlorhexidine 0,005 %, J17
  ATI dans les surnageants: 1902 cpm/ml
Chlorhexidine 0,005 %, J20
  ATI dans les surnageants: 1126 cpm/ml
Chlorhexidine 0,005 %, J23
  ATI dans les surnageants: 1226 cpm/ml
Chlorhexidine 0,005 %, J27
  ATI dans les surnageants: 528 cpm/ml
Chlorhexidine 0,005 %, J30
  ATI dans les surnageants: 720 cpm/ml
  action virucide: ne sont pas virucides
